# Earlier results as cited in patent publication US20130030007A1, “Obesity Small Molecules” (AKRON MOLECULES GMBH, priority 2010, published 2013).
# Structures can show the parent of a compound that is named as a salt. Starred links: 1 amine or outer side, 2 acyl side, 3 side chain; linkers in the order of their positions; H or OH if unused. Positions of bridges follow the written chain, without caps; N, C: chain ends. Non-standard residues stand in square brackets, D forms with d. Residues, ends and D or L forms follow the SMILES beside them. *: point of attachment. Adda = CO[C@@H](Cc1ccccc1)[C@@H](C)/C=C(C)/C=C/[C@H](N[*:1])[C@H](C)C(=O)[*:2]; dAsp(3S-Me) = C[C@H](C(=O)[*:3])[C@@H](N[*:1])C(=O)[*:2]; d(γGlu) = O=C(O)[C@@H](CCC(=O)[*:2])N[*:1]; Cbz = O=C(OCc1ccccc1)*; NMeDha = C=C(NC)C(=O)O
# System: human ortholog of Drosophila obesity gene
# Design: key: O: Obesity - obesity pathway interaction; B: validated binding partner
# Settings: cited from earlier work
row,Compound,Type: Type of interaction
1,CCCCCCCNS(=O)(=O)c1cccc2c(Cl)cccc12,B
2,COc1ccc(C2=N[C@@H](c3ccc(Cl)cc3)[C@@H](c3ccc(Cl)cc3)N2C(=O)N2CCNC(=O)C2)c(OC(C)C)c1 (racemic) [nutlin 3],O
3,Nc1nc2[nH]cc(CCc3ccc(C(=O)N[C@@H](CCC(=O)O)C(=O)O)cc3)c2c(=O)[nH]1 [LY231514],O
4,C=C1C(=O)N[C@H](C)C(=O)N[C@@H](CC(C)C)C(=O)N[C@@H](C(=O)O)[C@H](C)C(=O)N[C@@H](CCCNC(=N)N)C(=O)N[C@@H](/C=C/C(C)=C/[C@H](C)[C@H](Cc2ccccc2)OC)[C@H](C)C(=O)N[C@@H](C(=O)O)CCC(=O)N1C [MCYST-LR] (R[Adda][d(γGlu)][NMeDha][dA]L[dAsp(3S-Me)]-OH; lactam N-7),O
5,CS(=O)(=O)c1cc(F)cc2c3c(n(Cc4ccc(Cl)cc4)c12)[C@@H](CC(=O)O)CC3 [MK-0524],B
6,CSC[C@H]1O[C@@H](n2cnc3c(N)ncnc32)[C@H](O)[C@@H]1O [MeSAdo],B
7,CCCC(C)C1(CC)C(=O)NC(=O)NC1=O (stereo not shown) [Mebumal],O
8,CC(=O)O[C@]1(C(C)=O)CC[C@H]2[C@@H]3C[C@H](C)C4=CC(=O)CC[C@]4(C)[C@H]3CC[C@@]21C [Medroxyprogesterone 17-Acetate],B
9,CCCC(C)(COC(N)=O)COC(N)=O [Meprobamate],O
10,CNC[C@H](O)c1cccc(O)c1 [Mesaton],B
11,CN[C@@H](C)Cc1ccccc1 [Meth],O
12,COc1ccc2c(c1)C13CCCCC1C(C2)N(C)CC3 (stereo not shown) [Methorphan],O
13,CSc1ncnc2c1ncn2[C@@H]1O[C@H](CO)[C@@H](O)[C@H]1O [Methylthioinosine],B
14,C[C@]1(O)CC[C@H]2[C@@H]3CCC4=CC(=O)CCC4=C3C=C[C@@]21C [Metribolone],B
15,c1cncnc1 [Miazine],B
16,CCCOC(C(=O)OC1CCN(C)CC1)(c1ccccc1)c1ccccc1 [Mictonorm],B

row,Compound,Type: Type of interaction
1,Cc1ncc2n1-c1ccc(Cl)cc1C(c1ccccc1F)=NC2 [Midazolam],O
2,C[C@@H]1C[C@H]2O[C@@H]2/C=C\C=C\C(=O)Cc2c(Cl)c(O)cc(O)c2C(=O)O1 [Monorden],B
3,C/C=C1/C(=O)N[C@@H](C(=O)O)[C@H](C)C(=O)N[C@@H](C(C)C)C(=O)N[C@@H](/C=C/C(C)=C/[C@H](C)[C@H](Cc2ccccc2)OC)[C@H](C)C(=O)N[C@@H](C(=O)O)CCC(=O)N1C [Motuporin],O
4,Cn1cnc([N+](=O)[O-])c1Sc1ncnc2nc[nH]c12 [Muran],O
5,C[C@@H]1O[C@H](C[N+](C)(C)C)C[C@H]1O [Muscarine],B
6,Nc1ccc(CCN2CN(c3ccccc3)C3(CCN(CCCC(=O)c4ccc(F)cc4)CC3)C2=O)cc1 [N-(4-aminophenethyl)spiroperidol],B
7,CC(NC(N)=O)c1cc2ccccc2s1 (stereo not shown) [N-dehydroxyzileuton],O
8,O=C1CC(=O)N(c2ccccc2)c2cc(Cl)ccc2N1 [N-desmethylclobazam],B
9,COc1ccccc1N1CCN(CC(C(=O)NC(C)(C)C)c2ccccc2)CC1 (stereo not shown) [N-tert-butyl-3-[4-(2-methoxyphenyl)piperazin-1-yl]-2-phenylpropanamide],B
10,CCCC(=O)[O-].[Na+] [NABU],O
11,CN[C@H](CC(=O)O)C(=O)O [NMDA],O
12,CCN(CC)CCCC(C)Nc1nc(C)cc(Nc2ccc3nc(C)cc(N)c3c2)n1 (stereo not shown) [NSC 23766],B
13,Nc1nc(OCC2CCCCC2)c2[nH]cnc2n1 [NU2058],B
14,NS(=O)(=O)c1ccc(Nc2nc(OCC3CCCCC3)c3[nH]cnc3n2)cc1 [NU6102],B
15,Nc1ncnc2c1c(-c1cccc(OCc3ccccc3)c1)cn2C1CC(CN2CCC2)C1 (stereo not shown) [NVP-AEW541],O
16,NC[C@@H]1O[C@H](O[C@H]2[C@@H](O)[C@H](O[C@@H]3[C@@H](O)[C@H](N)C[C@H](N)[C@H]3O[C@H]3O[C@H](CN)[C@@H](O)[C@H](O)[C@H]3N)O[C@@H]2CO)[C@H](N)[C@@H](O)[C@@H]1O [Neomycin],B

# Same assay, conditions: interaction of the small molecule with the human ortholog(s) / Drosophila gene(s) listed in the same table line; cited from earlier work
row,Compound,Type: Type of interaction
1,O=c1c(O)c(-c2ccc(O)cc2O)oc2cc(O)cc(O)c12 [MORIN],O
2,COc1ccc(Cl)cc1C(=O)NCCc1ccc(S(=O)(=O)NC(=O)NC2CCCCC2)cc1 [Malix],B
3,CCC(=O)O[C@@H]1CC(=O)O[C@H](C)C/C=C/C=C/[C@H](O)[C@H](C)C[C@H](CC=O)[C@H](O[C@@H]2O[C@H](C)[C@@H](O[C@H]3C[C@@](C)(O)[C@@H](OC(=O)CC)[C@H](C)O3)[C@H](N(C)C)[C@H]2O)[C@H]1OC [Medemycin],O
4,COc1ccc2[nH]cc(CCNC(C)=O)c2c1 [Melatol],B
5,CC12CC3CC(C)(C1)CC(N)(C3)C2 [Memantine],B
6,CC(C)=CCC/C(C)=C/CC/C(C)=C/CC/C(C)=C/CC1=C(C)C(=O)c2ccccc2C1=O [Menatetrenone],O
7,CCC1(c2ccccc2)NC(=O)N(C)C1=O (stereo not shown) [Mephenytoin],B
8,COc1c2occc2cc2ccc(=O)oc12 [Methoxsalen],B
9,CC(C)(C(=O)c1cccnc1)c1cccnc1 [Metopiron],O
10,CC#C[C@]1(O)CC[C@H]2[C@@H]3CCC4=CC(=O)CCC4=C3[C@@H](c3ccc(N(C)C)cc3)C[C@@]21C [Mifepristone],B
11,NC(Cn1ccc(=O)c(O)c1)C(=O)O (stereo not shown) [Mimosine],O
12,O=C1c2c(O)ccc(O)c2C(=O)c2c(NCCNCCO)ccc(NCCNCCO)c21 [Mitoxantrone],O
13,CCOC(=O)[N-]c1cn(N2CCOCC2)n[o+]1 [Molsidomine],B
14,CC[C@@]1([C@@H]2O[C@@H]([C@H]3O[C@@](O)(CO)[C@H](C)C[C@@H]3C)C[C@@H]2C)CC[C@H]([C@]2(C)CC[C@]3(C[C@H](O)[C@@H](C)[C@@H]([C@@H](C)[C@@H](OC)[C@H](C)C(=O)O)O3)O2)O1 [Monensin],O
15,O=C(Nc1cc2ccccc2cn1)c1ccccc1NCc1ccncc1 [N-3-isoquinolinyl-2-((4-pyridinylmethyl)amino)benzamide],O
16,Nc1ccc(N2C(=O)C=CC2=O)cc1 [N-(4-aminophenyl)maleimide],O
17,N#Cc1cccc2sc(C(=O)NC(=N)N)cc12 [N-(4-cyano-benzo (b)thiophene-2-carbonyl)guanidine],O
18,C[C@H](NC(CCCCCCCN)C(=O)O)C(=O)N1CCC[C@H]1C(=O)O (stereo partly shown) [N-(8-amino-1-carboxyoctyl)-alanyl-proline],O

row,Compound,Type: Type of interaction
1,O=C[C@@H]1CCCN1C(=O)[C@@H]1CCCN1C(=O)OCc1ccccc1 [N-benzyloxycarbonylprolyl-prolinal] (Cbz-Pro-Pro-aldehyde),O
2,CCN1C(=O)C=CC1=O [N-ethylmaleimide],O
3,C#CCOc1ccccc1CCCCCC(=O)NS(C)(=O)=O [N-methylsulfonyl-6-(2-propargyloxyphenyl)hexanamide],O
4,COc1ccccc1N1CCN(CCCCN2C(=O)c3ccccc3C2=O)CC1 [NAN-190 hydrobromide],B
5,O=C1C[C@@H](c2ccc(O)cc2)Oc2cc(O)cc(O)c21 [NARIGENIN],O
6,O=C(O)C[C@H](O)C[C@H](O)/C=C/c1c(C2CC2)nc2ccccc2c1-c1ccc(F)cc1 [NK 104],B
7,CNC(=O)[C@@H](Cc1ccccc1)N(C)C(=O)[C@@H](Cc1ccc2ccccc2c1)N(C)C(=O)/C=C/CC(C)(C)N [NN 703],B
8,O=c1c(-c2ccc(O)cc2)coc2cc(O)cc(O)c12 [NPI 031L],B
9,c1ccc2ccccc2c1 [Naftalen],B
10,C=CCN1CC[C@]23c4c5ccc(O)c4O[C@H]2C(=O)CC[C@@]3(O)[C@H]1C5 [Naloxone],O
11,O=C1CC[C@@]2(O)[C@H]3Cc4ccc(O)c5c4[C@@]2(CCN3CC2CC2)[C@H]1O5 [Naltrexone],B
12,c1ccc2c(CC3=NCCN3)cccc2c1 [Naphazoline],O
13,CCc1nn(CCCN2CCN(c3cccc(Cl)c3)CC2)c(=O)n1CCOc1ccccc1 [Nefazodone],O
14,Cc1c(O)cccc1C(=O)N[C@@H](CSc1ccccc1)[C@H](O)CN1C[C@H]2CCCC[C@H]2C[C@H]1C(=O)NC(C)(C)C [Nelfinavir],O
15,Cc1ccnc2c1NC(=O)c1cccnc1N2C1CC1 [Nevirapine],O
16,NC(=O)c1cccnc1 [Niacinamide],B
17,O=C(OCC(COC(=O)c1cccnc1)(COC(=O)c1cccnc1)COC(=O)c1cccnc1)c1cccnc1 [Niceritrol],O
